IC50 data for 18 compounds are collected here from ChEMBL document CHEMBL6115013, “Design, synthesis, and biological evaluation of novel azaspirooxindolinone derivatives as potent inhibitors of ITK and BTK-dependent cancers” (Bioorg Med Chem, 2025).

Each structure is given as a SMILES string. Where only a bound is given, the exact number is not on record here.

Data set [1] is described as follows: Cytotoxicity against ITK/BTK null human BJ cells assessed as inhibition of cell growth by MTS assay. It counts as toxicity, cell-based.
Data set [2] is described as follows: Cytotoxicity against ITK/BTK null human MRC5 cells assessed as inhibition of cell growth by MTS assay. Type of data set: toxicity, cell-based.
Data set [3] concerns Jurkat. Nature of the data set: Cytotoxicity against ITK positive human Jurkat cells assessed as inhibition of cell growth by MTS assay.
In data set [4] the test system is CCRF-CEM. Nature of the data set: Cytotoxicity against ITK positive human CCRF-CEM cells assessed as inhibition of cell growth by MTS assay.
The subject of data set [5] is Ramos. Put plainly: Cytotoxicity against BTK positive human Ramos cells assessed as inhibition of cell growth by MTS assay.
The subject of another data set is A549. Nature of the data set: Cytotoxicity against ITK/BTK null human A549 cells assessed as inhibition of cell growth by MTS assay.
The subject of a further data set is U2OS. Nature of the data set: Cytotoxicity against ITK/BTK null human U2OS cells assessed as inhibition of cell growth by MTS assay.
A further data set has as its system HCT-116. Put plainly: Cytotoxicity against ITK/BTK null human HCT-116 cells assessed as inhibition of cell growth by MTS assay.
For the next data set, the system named is K562. Put plainly: Cytotoxicity against BTK positive human K562 cells assessed as inhibition of cell growth by MTS assay.
Data set [6] deals with Jurkat. Put plainly: Antiproliferative activity against human Jurkat cells. It counts as functional, cell-based.
Data set [7] has as its system Ramos. Nature of the data set: Antiproliferative activity against human Ramos cells. Type of data set: functional, cell-based.
Data set [8] deals with CCRF-CEM. Put plainly: Antiproliferative activity against human CCRF-CEM cells. Type of data set: functional, cell-based.
A short description of data set [9]: Antiproliferative activity against human K562-Tax cells. It counts as functional, cell-based.
The test system of a further data set is CEM-DNR. Put plainly: Antiproliferative activity against human CEM-DNR cells. It counts as functional, cell-based.
Another data set deals with MOLT-4. Nature of the data set: Antiproliferative activity against human MOLT-4 cells. It counts as functional, cell-based.
Data set [10] has as its target T1, Tyrosine-protein kinase ITK/TSK (Homo sapiens, UniProt Q08881).
T1 sequence (Q08881 whole entry): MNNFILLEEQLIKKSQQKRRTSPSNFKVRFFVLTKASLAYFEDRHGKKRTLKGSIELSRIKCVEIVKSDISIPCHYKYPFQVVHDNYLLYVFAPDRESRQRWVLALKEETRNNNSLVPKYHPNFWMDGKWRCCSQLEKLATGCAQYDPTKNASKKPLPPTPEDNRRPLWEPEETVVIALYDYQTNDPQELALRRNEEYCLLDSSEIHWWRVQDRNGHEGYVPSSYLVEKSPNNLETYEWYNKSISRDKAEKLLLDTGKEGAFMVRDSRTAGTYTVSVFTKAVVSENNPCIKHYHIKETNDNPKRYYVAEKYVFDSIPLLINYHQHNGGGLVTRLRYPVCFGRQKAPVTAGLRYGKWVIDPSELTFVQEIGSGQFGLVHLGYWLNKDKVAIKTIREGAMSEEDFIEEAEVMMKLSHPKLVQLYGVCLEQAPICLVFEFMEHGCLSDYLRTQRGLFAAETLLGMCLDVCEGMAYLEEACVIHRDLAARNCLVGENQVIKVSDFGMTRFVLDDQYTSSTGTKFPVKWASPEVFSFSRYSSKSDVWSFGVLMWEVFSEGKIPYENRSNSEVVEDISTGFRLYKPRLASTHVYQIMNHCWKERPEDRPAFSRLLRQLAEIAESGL
Nature of the data set: Inhibition of human ITK using poly (Glu:Tyr) as substrate in presence of ATP by ADP-glo kinase assay.

With `CCOC(=O)C(C)(C)C(=O)N1CCC2(CC1)C(=O)Nc1ncc(-c3ccc4c(c3)OCO4)cc12`, the IC50 in [1] is > 50 µM; in data set [2], > 50 µM; in the data set with Jurkat [3] it was 29.2 µM; in the data set with CCRF-CEM [4] it was > 50 µM; with Ramos [5], > 50 µM; with A549, > 50 µM. Further, the IC50 in the data set with U2OS, in the data set on HCT-116 and in the data set with K562 was > 50 µM each time.
For `O=C(O)C1(C(=O)N2CCC3(CC2)C(=O)Nc2ncc(-c4ccc5c(c4)OCO5)cc23)CC1`, the IC50 (in [1]; in data set [2]; in the data set on Jurkat [3]; in the data set on CCRF-CEM [4]; with Ramos [5]; with A549) was > 50 µM in each case. Further, the IC50 in the data set on U2OS, in the data set with HCT-116 and with K562 was > 50 µM in each case.
As for `C=CC(=O)N1CCC2(CC1)C(=O)Nc1ncc(-c3ccc4c(c3)OCO4)cc12`, the IC50 in data set [1] was > 50 µM; in [2], > 50 µM; in the data set with Jurkat [3] it was > 50 µM; in the data set with CCRF-CEM [4], 13.5 µM; with Ramos [5], > 50 µM; with A549 it was > 50 µM. The IC50 in the data set with U2OS, in the data set on HCT-116 and in the data set on K562 was > 50 µM throughout.
Regarding `N#CC1(C(=O)N2CCC3(CC2)C(=O)Nc2ncc(-c4ccc5c(c4)OCO5)cc23)CC1`, the IC50 in [1] was > 50 µM; in [2] it was > 50 µM; in the data set on Jurkat [3], 50 µM; in the data set on CCRF-CEM [4] it was > 50 µM; in the data set with Ramos [5], 1.42 µM; with A549, > 50 µM. The IC50 in the data set on U2OS, in the data set with HCT-116 and in the data set on K562 was > 50 µM each time.
As for `O=C(N1CCC2(CC1)C(=O)Nc1ncc(-c3ccc4c(c3)OCO4)cc12)C1(F)CC1`, the IC50 was determined as 2.25 µM in the data set on Jurkat [6]; 24.3 µM in the data set with Ramos [7]; 7.26 µM in the data set on CCRF-CEM [8]; 6.09 µM in data set [9]; 11.9 µM in the data set with CEM-DNR.
With `COC(=O)C1(C(=O)N2CCC3(CC2)C(=O)Nc2ncc(-c4ccc5c(c4)OCO5)cc23)CC1`, the IC50 turned out to be 14.8 µM with Jurkat [6]; 23.9 µM in the data set on Ramos [7]; 28.8 µM with MOLT-4; 15.2 µM with CCRF-CEM [8]; 12.5 µM in [9]; 20.4 µM in the data set on CEM-DNR.
On to `COC(=O)C1(C(=O)N2CCC3(CC2)C(=O)Nc2ncc(-c4cc(OC)c(OC)c(OC)c4)cc23)CC1`, for which the IC50 (with Jurkat [6]; in the data set on Ramos [7]; with MOLT-4; in the data set on CCRF-CEM [8]; in data set [9]; in the data set on CEM-DNR) was > 50 µM each time.
In the data set on CCRF-CEM [8], `O=C(N1CCC2(CC1)C(=O)Nc1ncc(-c3ccc4c(c3)OCO4)cc12)C1(CF)CC1` registered an IC50 of 25.5 µM.
For `O=C(N1CCC2(CC1)C(=O)Nc1ncc(-c3ccc4c(c3)OCO4)cc12)C(F)(F)F`, the IC50 in data set [1] is > 50 µM; in [2], > 50 µM; with Jurkat [3], 10.8 µM; in the data set on CCRF-CEM [4], 20.7 µM; in the data set on Ramos [5], > 50 µM; in the data set on A549 it was > 50 µM. The IC50 in the data set with U2OS, with HCT-116 and in the data set on K562 was > 50 µM in each case.
With `CC(C)(C#N)C(=O)N1CCC2(CC1)C(=O)Nc1ncc(-c3ccc4c(c3)OCO4)cc12`, the IC50 in data set [1] is > 50 µM; in data set [2], > 50 µM; in the data set with Jurkat [3], 9.36 µM; in the data set on CCRF-CEM [4], 14.3 µM; in the data set with Ramos [5], 10.1 µM; with A549 it was > 50 µM. Further, the IC50 in the data set on U2OS, in the data set with HCT-116 and in the data set on K562 was > 50 µM each time.
As for `C=CC(=O)N1CCC[C@@H](n2nc(-c3ccc(Oc4ccccc4)cc3)c3c(N)ncnc32)C1` [IBRUTINIB], the 50% inhibitory concentration (IC50) in data set [1] is 28.9 µM; in data set [2], 27.9 µM.
For the compound `O=C1Nc2ncc(-c3ccc4c(c3)OCO4)cc2C12CCN(C(=O)C1(C(F)(F)F)CC1)CC2`, the IC50 in data set [1] is > 50 µM; in data set [2], > 50 µM; with Jurkat [3], 29.4 µM; in the data set with CCRF-CEM [4] it was 19.5 µM; in the data set on Ramos [5], 1.82 µM; in the data set with A549, > 50 µM. The IC50 with U2OS, with HCT-116 and in the data set with K562 was > 50 µM throughout.
As to `O=C(N1CCC2(CC1)C(=O)Nc1ncc(-c3ccc4c(c3)OCO4)cc12)C1(O)CC1`, the IC50 (in data set [1]; in data set [2]; in the data set with Jurkat [3]; in the data set on CCRF-CEM [4]; in the data set with Ramos [5]; in the data set with A549) was > 50 µM each time. Moreover, the IC50 in the data set on U2OS, in the data set on HCT-116 and with K562 was > 50 µM each time.
For the compound `O=C1Nc2ncc(-c3ccc4c(c3)OCO4)cc2C12CCN(S(=O)(=O)C(F)(F)F)CC2`, the IC50 (in [1]; in [2]; in the data set with Jurkat [3]; in the data set with CCRF-CEM [4]; with Ramos [5]; in the data set on A549) was > 50 µM in each case. Moreover, the IC50 with U2OS, in the data set on HCT-116 and in the data set on K562 was > 50 µM each time.
Turning to `CC(C)(O)C(=O)N1CCC2(CC1)C(=O)Nc1ncc(-c3ccc4c(c3)OCO4)cc12`, the IC50 (in data set [1]; in [2]; in the data set with Jurkat [3]; in the data set with CCRF-CEM [4]; in the data set with Ramos [5]; in the data set with A549) was > 50 µM each time. The IC50 with U2OS, in the data set with HCT-116 and in the data set with K562 was > 50 µM throughout.
Regarding `CC(C)(F)C(=O)N1CCC2(CC1)C(=O)Nc1ncc(-c3ccc4c(c3)OCO4)cc12`, the IC50 with Jurkat [6] was determined as 2.49 µM; in the data set on Ramos [7] it was 16.4 µM; in the data set with CCRF-CEM [8] it was 3.79 µM; in data set [9] it was 3.68 µM; in the data set on CEM-DNR, 6.01 µM.
As for `CC(F)(F)C(=O)N1CCC2(CC1)C(=O)Nc1ncc(-c3ccc4c(c3)OCO4)cc12`, the IC50 was > 50 µM in [1]; > 50 µM in data set [2]; 3.58 µM in the data set with Jurkat [3]; 17.2 µM in the data set on CCRF-CEM [4]; 3.06 µM with Ramos [5]; > 50 µM in the data set with A549. Besides, the IC50 in data set [10] was 0.91 µM; in the data set with U2OS it was > 50 µM; in the data set with HCT-116 it was > 50 µM; with K562, > 50 µM.
As for `C=C(F)C(=O)N1CCC2(CC1)C(=O)Nc1ncc(-c3ccc4c(c3)OCO4)cc12`, the IC50 was > 50 µM in data set [1]; > 50 µM in [2]; 4.16 µM with Jurkat [3]; 14.1 µM in the data set on CCRF-CEM [4]; 1.38 µM in the data set with Ramos [5]; > 50 µM in the data set on A549. Moreover, the IC50 is > 10 µM in data set [10], 18.9 µM with U2OS, > 50 µM in the data set with HCT-116 and > 50 µM with K562.
